Reference: US5808049A, “Stereospecific 5-fu esters and methods for preparing same” (Director-General of Agency of Industrial Science and …, priority 1994, dated 1998)

Assays:
[1] = Stereoselective hydrolysis of anticancer agent esters with rat whole blood; conditions: pH 7.5
Protocol: (§1) Each of the reaction mixtures was prepared by dissolving 1 mg of the ester in 10 μl of ethanol, and by mixing with it, 90 μl of a 0.1M phosphoric acid buffer (having a pH of 7.5), plus one of the following: 100 μl of a cell suspension, or 20 or 30 μl of whole blood, or 50 μl of tissue homogenate. […] The cells numbers in 100 μl of the cell suspension used in the reaction were as follows: rat liver cancer cells Anr4=7×10^6 ; rat pancreas cancer cells ARIP=8×10^6 ; rat sarcoma cells XC=5×10^6 ; human histiocytic leukemia cells U937=1×10^7 ; human pancreas cancer cells MIA PaCa-2=8×10^6 ; and human intestinum crassum cancer cells Colo 320=1×10^7. Fifty μl of the tissue homogenate corresponded to 20 mg of wet tissue.
(§2) Each of these reaction mixtures was stirred for 12 hours at 30° C. by a magnetic stirrer; then 1.5 μl of 2N HCl was added, to bring the pH to about 2.5, and extraction with 1 ml of ethyl acetate in the presence of a saturated sodium chloride was carried out twice. The ethyl acetate layers of each sample were combined, the volume was adjusted to precisely 2 ml, and it was divided into 1.7 ml and 0.3 ml. The former was concentrated under reduced pressure, and the contained produced carboxylic acid was isolated by thin-layer preparative chromatography. A solution of diazomethane in ether was added to it, to methylate it, and the absolute configuration and the optical purity of the methylated product were determined by high-performance liquid chromatography using a chiral column. The latter 0.3 ml was directly methylated, and then it was concentrated and adjusted to 0.3 ml again, and the methyl ester of the contained produced carboxylic acid was determined quantitatively by gas chromatography, from which the hydrolyzed rate was determined. The column used in the high-performance liquid chromatography was a Chiralcell OJ or OD column (trade name; 4.6×250 mm) manufactured by Daicel; the elution was carried out by using a 10% 2-propanol/hexane mixture; and the flow velocity was 1 or 0.75 ml/min. The column used in the gas chromatography was a capillary column of OV-1 (0.25 mm×25 m), and the analysis temperature was 120° to 180° C.

[2] = Stereoselective hydrolysis of anticancer agent esters with human whole blood; conditions: pH 7.5
Protocol: as §1, §2

[3] = Stereoselective hydrolysis of anticancer agent esters with rat sarcoma cells XC; conditions: rat, xc cells, pH 7.5
Protocol: as §1, §2

rat sarcoma cells XC = test: as above; conditions: XC; 12 hours at 30° C., pH 7.5
Protocol: as §1, §2

[4] = Stereoselective hydrolysis of anticancer agent esters with rat liver cancer cells Anr4; conditions: rat, anr4 cells, pH 7.5
Protocol: as §1, §2

[5] = tested on: rat liver cancer cells Anr4; test: as above; conditions: Anr4; 12 hours at 30° C., pH 7.5
Protocol: as §1, §2

[6] = Stereoselective hydrolysis of anticancer agent esters with normal rat liver homogenate; conditions: 12 hours at 30° C., pH 7.5
[7] = Stereoselective hydrolysis of anticancer agent esters with normal rat muscle homogenate; conditions: 12 hours at 30° C., pH 7.5
[8] = Stereoselective hydrolysis of anticancer agent esters with rat pancreas cancer cells ARIP; conditions: rat, arip cells, pH 7.5
Protocol: as §1, §2

[9] = tested on: rat pancreas cancer cells ARIP; test: as above; conditions: ARIP; 12 hours at 30° C., pH 7.5
Protocol: as §1, §2

[10] = Stereoselective hydrolysis of anticancer agent esters with normal rat pancreas homogenate; conditions: 12 hours at 30° C., pH 7.5
Protocol: as §1, §2

[11] = Stereoselective hydrolysis of anticancer agent esters with human histiocytic leukemia cells U937; conditions: human, u937 cells, pH 7.5
Protocol: as §1, §2

[12] = tested on: human histiocytic leukemia cells U937; test: as above; conditions: U937; 12 hours at 30° C., pH 7.5
Protocol: as §1, §2

[13] = Stereoselective hydrolysis of anticancer agent esters with human pancreas cancer cells MIA PaCa-2; conditions: human, mia paca-2 cells, pH 7.5
Protocol: as §1, §2

[14] = tested on: human pancreas cancer cells MIA PaCa-2; test: as above; conditions: MIA PaCa-2; 12 hours at 30° C., pH 7.5
Protocol: as §1, §2

[15] = Stereoselective hydrolysis of anticancer agent esters with human intestinum crassum cancer cells Colo 320; conditions: human, colo 320 cells, pH 7.5
Protocol: as §1, §2

[16] = tested on: human intestinum crassum cancer cells Colo 320; test: as above; conditions: Colo320; 12 hours at 30° C., pH 7.5
Protocol: as §1, §2

enantiomer excess of the carboxylic acid produced by the hydrolysis ([1]; rat whole blood, 12 hours at 30° C.): 41.8 % e.e.
metabolised at 12 h ([1]; rat, whole blood): 16.3%
enantiomer excess of the carboxylic acid produced by the hydrolysis ([2]; human whole blood, 12 hours at 30° C.): 66.9 % e.e.
metabolised at 12 h ([2]; human, whole blood): 36.1%
metabolised at 12 h [3]: 3.4%
enantiomer excess of the carboxylic acid produced by the hydrolysis (rat sarcoma cells XC): > 99 % e.e.
metabolised at 12 h [4]: 7.8%
enantiomer excess of the carboxylic acid produced by the hydrolysis [5]: 98.4 % e.e.
enantiomer excess of the carboxylic acid produced by the hydrolysis [6]: > 99 % e.e.
enantiomer excess of the carboxylic acid produced by the hydrolysis [7]: 87.8 % e.e.
metabolised at 12 h [8]: 1.9%
enantiomer excess of the carboxylic acid produced by the hydrolysis [9]: > 99 % e.e.
enantiomer excess of the carboxylic acid produced by the hydrolysis [10]: > 99 % e.e.
metabolised at 12 h [11]: 12.6%
enantiomer excess of the carboxylic acid produced by the hydrolysis [12]: 57.8 % e.e.
metabolised at 12 h [13]: 20.6%
enantiomer excess of the carboxylic acid produced by the hydrolysis [14]: 19.0 % e.e.
metabolised at 12 h [15]: 13.8%
enantiomer excess of the carboxylic acid produced by the hydrolysis [16]: 64.6 % e.e.
Structure (SMILES): O=C(OC[C@H]1O[C@@H](n2cc(F)c(=O)[nH]c2=O)[C@H](O)[C@@H]1O)C(Cc1ccccc1)NC(=O)C(F)(F)F (stereo partly drawn) [IIc, 5'-(RS)-(2-trifluoroacetamido-3-phenylpropionyl)-5-fluorouridine]
